{
  "source": "patent US20120252119A1",
  "about": "“METHODS FOR THE COLLECTION AND MATURATION OF OOCYTES” (priority 2009, published 2012)",
  "key": {"[1]": {"tested_on": "FSH-induced oocyte maturation", "assay": "EGFR kinase inhibitor on FSH-induced oocyte maturation in presence of cilostamide", "assay_type": "cell-based, bovine", "protocol": "The basic oocyte maturation medium (also referred to as the “IVM medium” or “IVM phase medium”) used for the IVM phase was a bovine maturation medium (termed Bovine VitroMat, Cook Australia), a medium formulated to closely replicate the ionic composition of bovine follicular fluid. Where indicated, the type-3 PDE specific inhibitor cilostamide (20 μM; Biomol Plymouth Meeting, Pa.) or the epidermal growth factor receptor (EGFR) kinase inhibitor, AG1478 (Alexis Biochemicals, San Diego, Calif.), were added to the IVM medium from a millimolar stock solution stored at −20° C. dissolved in DMSO. […]\nAt the end of the incubation, COCs were denuded and oocytes were fixed for 30 min in 4% paraformaldehyde in PBS (pH 7.4). Oocytes were then permeabilized in 0.1% Triton X-100 in 0.1% sodium citrate for 1 hour, then transferred to 0.001% 4′,6-diamidino-2-phenylindole (DAPI), a fluorescence stain for nuclear material, for 15 min. Oocytes were rinsed 3 times in PBS+0.03% BSA, mounted on slides and evaluated for nuclear status at 400× using an Olympus fluorescence microscope. Stages of germinal vesicle (GV) and subsequent meiotic development were assessed based on known techniques (Chohan and Hunter, 2003, Anim. Reprod. Sci. 76: 43-51). […]\nOocytes were then fixed and assessed for meiotic progression at 24 hours. […]"}, "[2]": {"tested_on": "cAMP content of the whole COCs", "assay": "cAMP content of bovine COCs, radioimmunoassay", "assay_type": "cell-based", "conditions": "agent alone, up to 2 hours, FIG. 2", "protocol": "Oocytes were aspirated with their cumulus vestments intact (COCs). A subset of the COCs were denuded of their cumulus vestment prior to assay (DO). Aspiration and subsequent selection procedures (pre-IVM phase) were performed for 2 hours where oocytes (COCs and DOs) were processed in various media (termed “pre-IVM phase media” or “pre-IVM media”). These included processing of oocytes either in follicular fluid, or in two types of collection medium. […] Cyclic AMP content of COCs and denuded oocytes (DOs), i.e. those oocytes cultured as COCs but denuded of their cumulus vestment prior to assay, were measured using a radioimmunoassay method described and validated previously (Reddoch et al., 1986, Endocrinology 119: 879-886). […] Briefly, supernatants were collected, evaporated, resuspended in assay buffer (50 mM sodium acetate, pH 5.5) and acetylated by the addition of triethylamine (AJAX Chemicals, Sydney, Australia) and acetic anhydride (BDH Laboratory Supplies, Poole, England) 2:1 v/v. cAMP was measured in duplicates after appropriate dilution. ^125I-labelled cAMP (specific activity of 2175 Ci/mM) and cAMP antibody (as prepared by Reddoch et al supra) were added to samples and left overnight at 4° C. […] The supernatant was removed and the pellet dried and counted using a gamma counter. […]"}, "bovine oocytes [3]": {"tested_on": "bovine oocytes", "assay": "Bovine in vitro fertilization and embryo culture (cleavage, blastocyst development)", "assay_type": "cell-based", "protocol": "At 24 or 30 hours after IVM, COCs were washed twice using Bovine VitroWash (Cook Australia), and transferred to insemination dishes containing in vitro fertilisation (IVF) medium (Bovine VitroFert, Cook Australia) supplemented with penicillamine (0.2 mM; Sigma), hypotaurine (0.1 mM; Sigma), and heparin (2 mg/ml; Sigma). Frozen semen from a single bull of proven fertility was used for insemination. Briefly, thawed semen was layered over a discontinuous (45%: 90%) Percoll gradient (Amersham Bioscience) and centrifuged for 20-25 minutes at 700 g. The supernatant was removed and the sperm pellet was washed with 500 μl Bovine VitroWash and centrifuged for a further 5 minutes at 200 g. […] Embryos were assessed for quality at Day 8 according to the definitions presented in Stingfellow and Seidel, 1998, Manual of the International Embryo Transfer Society. […]\nTherefore, cumulus-oocyte complexes (COCs) were aspirated and selected in either follicular fluid, collection medium or collection medium supplemented with 100 μM forskolin (FSK) and 500 μM IBMX for 2 hours. […] Oocyte developmental capacity was then assessed after in vitro fertilization and embryo development was assessed by the cleavage rate and blastocyst rate on day 8. […]"}, "human oocytes": {"tested_on": "human oocytes", "assay": "Human oocyte IVM, meiosis score", "assay_type": "cell-based", "conditions": "for % GV / % GVBD / % PB: IVM with 0.1 μM cilostamide and FSH", "protocol": "Immature human cumulus-oocyte complexes (COC) were collected from young, healthy women (not from IVF patients). […] Oocyte pick-up was performed when the lead ovarian follicle reached 12 mm. Immature oocytes were then stratified to various treatments during either the Pre-IVM or IVM periods, as detailed below. In addition, time of removal of somatic cells from oocytes (denuding) during the oocyte maturation period was examined. The following trials were conducted: • Dose of PDE3-inhibitor (cilostamide) during IVM: 0 versus 0.1 versus 1.0 μM • cAMP modulators during Pre-IVM: control versus IBMX versus IBMX+forskolin • Effect of time of oocyte denuding on embryo development: 30 versus 40 versus 44-48 hours\nAt the oocyte pick-up, COC were collected immediately into pre-IVM treatments in VitroCollect medium (Cook Australia, Brisbane, Australia) and held for one hour. Following pre-IVM, COC were washed and then transferred to IVM treatments (e.g. dose of cilostamide) in VitroMat medium (Cook) and matured under standard conditions. At the various times post-denuding, oocytes were monitored for maturation (polar body [PB] extrusion). At the end of maturation (48 hours) a final meiosis score was given. As oocytes matured they were inseminated using standard intra-cytoplasmic sperm injection (ICSI) procedures using donor sperm. 24 hours later fertilisation rates were determined. Embryos were cultured for up to 6 days until developmental arrest using standard procedures."}, "bovine oocytes [4]": {"tested_on": "bovine oocytes", "assay": "Oocyte nuclear morphology assessment (GV configuration, GVBD, meiotic progression)", "assay_type": "cell-based", "protocol": "At the end of the incubation, COCs were denuded and oocytes were fixed for 30 min in 4% paraformaldehyde in PBS (pH 7.4). Oocytes were then permeabilized in 0.1% Triton X-100 in 0.1% sodium citrate for 1 hour, then transferred to 0.001% 4′,6-diamidino-2-phenylindole (DAPI), a fluorescence stain for nuclear material, for 15 min. Oocytes were rinsed 3 times in PBS+0.03% BSA, mounted on slides and evaluated for nuclear status at 400× using an Olympus fluorescence microscope. Stages of germinal vesicle (GV) and subsequent meiotic development were assessed based on known techniques (Chohan and Hunter, 2003, Anim. Reprod. Sci. 76: 43-51). In brief, GV chromatin of bovine oocytes was classified into: GV I—condensed filamentous chromatin around the nucleolus and nuclear membrane; GV II—filamentous chromatin surrounding the nucleolus; GV III—filamentous chromatin clumps are distributed in the nucleus and the nucleolus has disappeared; GV IV—chromatin has condensed into a thick clump; Early diakenesis-chromatin beginning to condense into a single lump; Diakenesis-chromatin has condensed into a single lump; Metaphase I—tetrads are aligned on the spindle; and Metaphase II—the metaphase chromatin is evident as well as a small chromatin-containing polar body.\nOocytes were then fixed and assessed for meiotic progression and classified as GV (germinal vesical intact—still under meiotic arrest) or GVBD (germinal vesical breakdown—resumption of meiosis). A mean number of 45 oocytes were used in each treatment group and time-point from four replicate experiments. The presence of letters (a or b) above each column indicate a statistical difference between the means as determined by ANOVA analysis followed by Bonferronni's post hoc test, P<0.05.\nOocytes were exposed to pre-IVM phase media comprising pure follicular fluid, collection medium, or collection medium supplemented with cAMP modulators (forskolin and IBMX) (A), followed by extended culture in the presence (C; E) or absence (B; D) of the type-3 PDE inhibitor, cilostamide (20 μM), plus follicle stimulating hormone. Oocytes were then fixed and assessed for GV configuration at 2, 5 and 9 hours. A mean number of 40 oocytes were used in each treatment group and time-point from four replicate experiments.\nAs indicated above, oocytes were aspirated and selected in either follicular fluid, collection medium or collection medium supplemented with 100 μM forskolin (FSK) and 500 μM IBMX for 2 hours. […] Oocytes were then fixed and assessed for meiotic progression at 20, 24 and 28 hours. A mean number of 45 oocytes were used in each treatment group and time-point from four replicate experiments."}, "[5]": {"tested_on": "oocyte-cumulus cell gap junctional communication", "assay": "Oocyte-cumulus cell gap junctional communication assay (calcein transfer)", "assay_type": "cell-based, bovine", "conditions": "after 3 hours of IVM culture post pre-IVM phase, FIG. 7", "description": "Cumulus-oocyte gap junctional communication (GJC) was measured by quantitative fluorescence microscopy of calcein transfer to the oocyte as described previously (Thomas et al., 2004, In “Biol. Reprod.”, pp 1142-1149). GJC was measured either after 2 hours of pre-IVM phase or followed by an additional 3 hours of IVM with or without cilostamide (20 μM). A mean number of 10-12 oocytes were used in each treatment group in each of four replicate experiments. After culture, COCs were transferred to a solution of 1 μM calcein-AM (3′,6′-di(O-acetyl)-2′,7′-bis[N,N-bis(carboxymethyl)amino methyl]-fluorescein, tetraacetoxy methyl ester; C-3100; Molecular Probes; Eugene, Oreg., USA) freshly prepared in a BSA-free Bovine VitroCollect (Cook Australia) supplemented with polyvinyl alcohol (PVA; 0.3 mg/ml). […] Prior to fluorescence microphotometry, COCs were completely denuded of their surrounding cumulus cells using vigorous pipetting so that only dye confined within the denuded oocyte after transport via gap junctions was measured. Within 30 minutes of denuding, the intra-oocyte fluorescence emission of calcein in oocytes was measured using a fluorophotometric-inverted microscope (Leica, Wetzlar, Germany). […]"}},
  "data": [
    {"compound": "COc1cc2ncnc(Nc3cccc(Cl)c3)c2cc1OC", "note": "[AG1478]", "values": [
      {"measurement": "maturation percentage", "setting": "[1]; FSH 100 mlU, cilostamide 20 μM, increasing doses of AG1478, 24 hours, from >80% without, FIG. 10", "result": "approximately 5%"},
      {"measurement": "meiotic recovery of FSH and cilostamide treated COCs", "setting": "[1]; increasing doses of AG1478", "result": "completely prevented the meiotic recovery"}
    ]},
    {"compound": "CC(C)Cn1c(=O)n(C)c(=O)c2[nH]cnc21", "note": "[IBMX, 3-isobutyl 1-methylxanthine]", "values": [
      {"measurement": "COC cAMP levels during pre-IVM", "setting": "[2]", "result": "maintained cAMP levels for 2 hours"},
      {"measurement": "development to the blastocyst stage", "setting": "bovine oocytes [3]; 30-60 minutes pre-IVM, IVM with 20 μM cilostamide, FIG. 11B", "result": "significantly higher than control"},
      {"measurement": "% GV", "setting": "human oocytes; 36-40 hours", "result": 10.3, "unit": "%"},
      {"measurement": "% GVBD", "setting": "human oocytes; 36-40 hours", "result": 43.6, "unit": "%"},
      {"measurement": "% PB", "setting": "human oocytes; 36-40 hours", "result": 46.2, "unit": "%"},
      {"measurement": "% GV", "setting": "human oocytes; 42-44 hours", "result": 9.4, "unit": "%"},
      {"measurement": "% GVBD", "setting": "human oocytes; 42-44 hours", "result": 28.1, "unit": "%"},
      {"measurement": "% PB", "setting": "human oocytes; 42-44 hours", "result": 62.5, "unit": "%"},
      {"measurement": "% GV", "setting": "human oocytes; 30 hours", "result": 11.1, "unit": "%"},
      {"measurement": "% GVBD", "setting": "human oocytes; 30 hours", "result": 48.1, "unit": "%"},
      {"measurement": "% PB", "setting": "human oocytes; 30 hours", "result": 40.7, "unit": "%"},
      {"measurement": "% GV", "setting": "human oocytes; 48 hours", "result": 10.3, "unit": "%"},
      {"measurement": "% GVBD", "setting": "human oocytes; 48 hours", "result": 28.2, "unit": "%"},
      {"measurement": "% PB", "setting": "human oocytes; 48 hours", "result": 61.5, "unit": "%"}
    ]},
    {"compound": "CN(C(=O)CCCOc1ccc2[nH]c(=O)ccc2c1)C1CCCCC1", "note": "[cilostamide]", "values": [
      {"measurement": "rates of GVBD", "setting": "bovine oocytes [4]; 2 h pre-IVM, 7 h IVM with FSH and cilostamide 20 μM, all pre-IVM treatments, FIG. 5", "result": "significantly lowered the rates of GVBD"},
      {"measurement": "oocytes at GV IV", "setting": "bovine oocytes [4]; 9 hours, collection medium lacking cAMP modulators, 7 h IVM+cilostamide, FIG. 6E", "result": "51%±10"},
      {"measurement": "oocytes at M I stage", "setting": "bovine oocytes [4]; 20 hours of IVM with cilostamide, absence of FSH, FIG. 8A", "result": "36%±4"},
      {"measurement": "oocytes at M I stage", "setting": "bovine oocytes [4]; 20 hours of IVM+cilostamide, presence of FSH, FIG. 8B", "result": "21%±4"},
      {"measurement": "oocytes progressed to M II stage", "setting": "bovine oocytes [4]; 24 hours of IVM with cilostamide, absence of FSH, FIG. 8A", "result": 50, "unit": "%"},
      {"measurement": "oocytes arrested at the M I stage", "setting": "bovine oocytes [4]; cilostamide, absence of FSH, 24 hours of culture, FIG. 8A", "result": "40-50%"},
      {"measurement": "levels of gap junctional communication", "setting": "[5]", "result": "had no effect in maintaining the level of gap junctional communication"},
      {"measurement": "% Blastocysts", "setting": "bovine oocytes [3]; collection phase CM without cAMP modulators, IVM +cilostamide, maturation time 24", "result": 22, "unit": "%"},
      {"measurement": "effect of dose on resumption of meiosis", "setting": "human oocytes; cilostamide 0.1 μM", "result": "non-inhibiting"},
      {"measurement": "Germinal Vesicle Breakdown", "setting": "human oocytes; cilostamide 0.1 μM during IVM (n = 39)", "result": 44, "unit": "%"},
      {"measurement": "effect of dose on resumption of meiosis", "setting": "human oocytes; cilostamide 1.0 μM", "result": "inhibiting dose"},
      {"measurement": "Germinal Vesicle Breakdown", "setting": "human oocytes; cilostamide 1.0 μM during IVM (n = 38)", "result": 13, "unit": "%"}
    ]}
  ]
}
